Test results from patent US6165986A (Taisho Pharmaceutical Co., Ltd., priority 1997, dated 2000).
Converted amounts (≈) assume the structure as drawn.

Key:
Format in all cases: cell-based
S. aureus 209P-JC = test: In vitro antibacterial activity (MIC), S. aureus 209P-JC; conditions: Staphylococcus aureus, sensitive disc media, Japan Society of Chemotherapy method, read-out: MIC value (Minimum Inhibitory Concentration)
Method: (§1) The in vitro antibacterial activity of the compound obtained in Example 2 as an example of the compound of the present invention against various experimental bacteria was measured using sensitive disc media (produced by Eiken Chemical Co.) according to the MIC measuring method specified by the Japan Society of Chemotherapy. Clarithromycin was used as a comparative drug.

S. aureus Smith = test: In vitro antibacterial activity (MIC), S. aureus Smith; conditions: Staphylococcus aureus, sensitive disc media, Japan Society of Chemotherapy method, read-out: MIC value (Minimum Inhibitory Concentration)
Method: as §1

S. epidermidis IID 866 = test: In vitro antibacterial activity (MIC), S. epidermidis IID 866; conditions: Staphylococcus epidermidis, IID866, sensitive disc media, Japan Society of Chemotherapy method, read-out: MIC value (Minimum Inhibitory Concentration)
Method: as §1

E. faecalis CSJ 1212 = test: In vitro antibacterial activity (MIC), E. faecalis CSJ 1212; conditions: Enterococcus faecalis, CSJ1212, sensitive disc media, Japan Society of Chemotherapy method, read-out: MIC value (Minimum Inhibitory Concentration)
Method: as §1

S. pneumoniae BM 225 = test: In vitro antibacterial activity (MIC), S. pneumoniae BM 225; conditions: Streptococcus pneumoniae, BM225, sensitive disc media, Japan Society of Chemotherapy method, read-out: MIC value (Minimum Inhibitory Concentration)
Method: as §1

S. pneumoniae BM 211 = test: In vitro antibacterial activity (MIC), S. pneumoniae BM 211; conditions: Streptococcus pneumoniae, BM211, sensitive disc media, Japan Society of Chemotherapy method, read-out: MIC value (Minimum Inhibitory Concentration)
Method: as §1

[1] = system: erythromycin-sensitive bacteria; test: Antibacterial activity against erythromycin-sensitive bacteria
Method: as §1

[2] = system: erythromycin-resistant bacteria; test: Antibacterial activity against erythromycin-resistant bacteria
Method: as §1

Haemophilus influenzae = test: Antibacterial activity against Haemophilus influenzae
Method: as §1

Row | Structure (SMILES) | MIC (S. aureus 209P-JC) [µg/mL] | MIC (S. aureus Smith) [µg/mL] | MIC (S. epidermidis IID 866) [µg/mL] | MIC (E. faecalis CSJ 1212) [µg/mL] | MIC (S. pneumoniae BM 225) [µg/mL] | MIC (S. pneumoniae BM 211) [µg/mL] | antibacterial activity (in words) [1] | antibacterial activity (in words) [2] | antibacterial activity (in words) (Haemophilus influenzae)
1 | CC[C@H]1OC(=O)[C@H](C)[C@@H](O[C@H]2C[C@@](C)(OC)[C@@H](O)[C@H](C)O2)[C@H](C)[C@@H](O[C@@H]2O[C@H](C)C[C@H](N(C)C)[C@H]2O)[C@](C)(OC)C[C@@H](C)C(=O)[C@H](C)[C@@H](O)[C@]1(C)O [Comparative drug, Clarithromycin, reference compound] | 0.1 (≈ 0.134 µM) | 0.2 (≈ 0.267 µM) | 0.2 (≈ 0.267 µM) | 0.2 (≈ 0.267 µM) | 50 (≈ 66.8 µM) | > 100 | – | – | –
2 | CC[C@H]1OC(=O)[C@H](C)C(=O)[C@H](C)[C@@H](O[C@@H]2O[C@H](C)C[C@H](N(C)C)[C@H]2O)[C@](C)(OC)C[C@@H](C)C(=O)[C@H](C)[C@H]2N(CCN(C)Cc3cccnc3)C(=O)O[C@]12C [Example 2, 11-[2-[N-methyl-N-(3-pyridylmethyl)amino]ethyl]amino-3,11-dideoxy-3-oxo-5-O-desosaminyl-6-O-methylerythronolide A 11,12-cyclic carbamate] | 0.05 (≈ 0.0657 µM) | 0.1 (≈ 0.131 µM) | 0.1 (≈ 0.131 µM) | 0.05 (≈ 0.0657 µM) | 0.39 (≈ 0.513 µM) | 50 (≈ 65.7 µM) | strong antibacterial activity | strong antibacterial activity | strong antibacterial activity
